Test results: US8618074B2, “GPCR enhanced neuroprotection to treat brain injury” (Board of Regents of the University of Texas System, priority 2007, dated 2013)

Experiments:
[1] = tested on: Rose Bengal (RB)-induced cerebral infarcts in mouse cortex; assay: RB-induced photothrombosis lesion size in parietal cortex of GFAP-GFP transgenic mice (confocal); format: in vivo; conditions: 24 and 48 hours post-ischemia; with versus without MRS2365
From the text: A precise clot in a blood vessel is induced using the photosensitive dye Rose Bengal (RB) in the mouse cortex. The blood vessels were simultaneously imaged by injecting the red fluorescent dye […] into the mouse circulation. The targeted blood vessel is illuminated by a 543-nm laser after tail vein injection of RB. RB is activated by the laser and interacts with molecular oxygen to form singlet oxygen, which is known to damage endothelial cells within the blood vessel, thereby triggering the natural clotting cascade and leading to formation of a clot. Pharmacological agents can be introduced at the time of photoactivation which also causes the breakdown of the blood-brain barrier.
The parietal cortex of GFAP-GFP transgenic mice was imaged using confocal microscopy and a 40×NA 0.8 or 10×NA 0.45 objective. The same region of the cortex was periodically imaged prior to RB injection, and 10, 20, 30, and 40 minutes post-RB injection. RB is impermeable to the BBB and is cleared quickly under physiological conditions.
The parietal cortex of GFAP-GFP transgenic mice was imaged using confocal microscopy and a 10×0.45 NA objective. […] The size of the lesion was calculated in Image J by tracing the region of the cortex that was void of GFP expressing astrocytes. […]

[2] = tested on: astrocytes; assay: Time until mitochondrial membrane potential (ΔΨ, TMRE) collapse during t-BuOOH oxidative stress; format: cell-based, mouse; conditions: for average time until ΔΨ collapse: XeC 25 μM pretreatment + ATP 10 μM, then t-BuOOH 100 μM; for time until ΔΨ collapse: then t-BuOOH
Procedure: Primary cultures of astrocytes were prepared as previously published (Lin et al., 2005). C57BL/6 male mice were purchased from the National Institute of Aging and maintained in standard accredited housing conditions at the University of Texas Health Science Center Animal Facility. Animal protocols were approved by our Institutional Animal Care Use Committee. Astrocytes were cultured in DMEM F-12 media (Invitrogen, # 11039-021) supplemented with 2 mM glutamine, nonessential amino acids, 10% fetal calf serum, 100 U/ml penicillin/streptomycin (Cambrex BioScience Walkersville, #17-602E) and 1% fungizone (Invitrogen, #15290-018) at 37° C. in an atmosphere containing 5% CO2. The culture medium was changed every 3-5 days. Confluent cells were gently removed by a trypsin EDTA solution and re-plated on 35 mm glass bottom chambers (Bioptechs #04200415C) prior to imaging experiments 3-4 days later. Cells were maintained in plastic culture flasks until the final re-seeding of cells onto a glass bottom chamber and were passed up to 3 times for astrocyte only experiments. For co-culture experiments with neurons, primary astrocytes were plated directly onto corning transwell-clear permeable supports, which physically separates the two cell-types by ˜1 mm (# 07-200-170, Fisher scientific). Astrocytes were cultured in transwells until they were ˜70% confluent. Mouse cortical neurons (Cambrex Bio Science Walkersville Inc., # M-CX-300) were then cultured onto 6 well mat-tek glass bottom plates and maintained in Neurobasal Medium (Invitrogen, # 21103-049), 2 mM L-Glutamine (Cambrex BioScience Walkersville, #17-605E), 100 U/ml penicillin/streptomycin (Cambrex BioScience Walkersville, #17-602E) and B-27 with (Invitrogen, #17504-044) and without antioxidants (Invitrogen, #10889-038), which controls glia contamination to less than 0.5%. The transwell supports with cultured astrocytes were placed in the neuron seeded glass bottom chambers for four days before imaging and both cell types were then maintained in neuronal media. For neuron only experiments, the astrocytes on the transwell supports were removed prior to treatments and imaging.
(§1) Mitochondrial membrane potentials (ΔΨs) was measured as previously described using the potential sensitive dye tetra-methyl rhodamine ethyl ester (TMRE, Molecular Probes, #T-669) (Lin and Lechleiter, 2002). Images were acquired with a 60× oil 1.4 NA objective on a Nikon PCM2000 confocal microscope custom adapted for two-photon imaging. A Ti-sapphire Coherent Mira 900 Laser pumped with a 5W Verdi laser (Coherent Inc., Santa Clara, Calif.) was used to excite TMRE at 800 nm A neutral-density filter wheel was used to attenuate the laser intensity so that no detectable photobleaching of TMRE was observed.
To investigate this, primary cultures of astrocytes were prepared from the brains of young (4-6 months) and old (26-28 months) mice and re-plated on glass coverslips prior to each imaging experiment as previously described. Seeded glass coverslips were then sealed in an open chamber (Bioptechs Delta T) and perfused at 37° C. with the potential sensitive dye tetramethyl rhodamine ethyl ester (TMRE, 200 nM, Molecular Probes/Invitrogen) to label astrocyte mitochondria. Mitochondrial membrane potentials (ΔΨs) were measured every 5 minutes using two-photon microscopy. Each image is a maximum intensity projection of a z-stack of six optical sections (1-μm steps). Scale bar is 10 μm. Plated cells were continuously perfused at 37° C. with culture medium containing TMRE (200 nM) and imaged with 2-photon microscopy (800 nm). Oxidative stress was applied to the cells in the perfusate with t-BuOOH (100 μM). Cell viability was then monitored by the collapse of ΔΨ (TMRE fluorescence) to 10% of its initial value. The time course of ΔΨ collapse is plotted for 3 astrocytes (A1, A2, A3) in each culture (FIGS. 1B and 2B). Fluorescent units are scaled to 100% at 0 hours. […]

[3] = tested on: astrocytes; assay: Fura-2 two-photon imaging of intracellular Ca2+ response; format: cell-based, mouse; conditions: for Ca2+ response: then IP3-BM
Procedure: Ca^2+ activity was imaged as previously described (Camacho and Lechleiter, 1995). In brief, cultured astrocytes were incubated with the fura-2 am (Molecular Probes, #F-1221) 30 min prior to the experiment. Images were acquired with two-photon excitation (800 nm) at the rate of 1.5 images/ sec. […] Images were analyzed with Image J and ANALYZE® software (the Mayo Foundation, Rochester, MN). The D-enantiomer of the 1P3-BM ester was synthesized by Stuart Conway in the Cambridge University Chemical Laboratory by using a modification of the protocol of Tsien and co-workers (Li et al., 1997).
The primary response of glial cells to extracellular ATP is an increase in intracellular Ca^2+. To investigate whether the protective effect of ATP could be initiated by a Ca^2+ response, we loaded cultures of astrocytes with the Ca^2+ indicator dye Fura-2 AM (10 μM for 30 minutes). Fura-2 fluorescence was imaged with 2-photon microscopy using 800 nm excitation. At this wavelength, fluorescence is primarily due to the Ca^2+ free form of fura-2. […] When young astrocyte cultures were exposed to extracellular ATP (10 μM for 10 minutes), the peak intracellular Ca^2+ (−ΔF/F) was increased to 0.46±0.02 (n=25, pooled from 2 experiments). […] We tested whether the ATP-induced Ca^2+ response could be attributed to the metabotropic pathway, since IP3 mediated Ca^2+ release can stimulate mitochondrial energy production as well as sensitize mitochondria to apoptotic stimuli. Astrocytes cultured from old mice were pretreated with Xestospongin C (XeC, 25 μM for 30 minutes), which is a competitive inhibitor of IP3 binding to the IP3R. […] This is consistent with other reports showing that activation of the ionotropic P2X receptor activation also increases Ca^2+ in cultured astrocytes. To determine whether the metabotropic pathway was involved with the protective effect of extracellular ATP, we subsequently exposed the XeC/ATP treated astrocytes to oxidative stress. As described above, the perfusate contained t-BuOOH (100 μM) and TMRE (200 nM) to monitor ΔΨ. Under these experimental conditions, the average time until ΔΨ collapse was reduced to 5.48±0.22 (n=23, pooled from 2 experiments) in young astrocytes (FIG. 1C) and to 4.02±0.18 h (n=19, pooled from 2 experiments) in old astrocytes (FIG. 2C). […] We concluded that the protective effect of ATP on astrocytes was mediated by P2Y-receptors (P2Y-Rs).

[4] = tested on: astrocytes; assay: Mitochondrial membrane potential ΔΨ estimated as log(Fmito/Fcyto) with TMRE; format: cell-based, mouse
Procedure: as §1
We confirmed this by directly measuring the effect of ATP, ATP plus XeC and IP3-BM treatments on ΔΨ. Cultured cells were labeled with TMRE (200 nM) and imaged with a two-photon microscope as described above. ΔΨ was estimated as the log (Fmito/Fcyto) where Fmito is the peak fluorescent intensity observed in single mitochondria (Farkas et al., 1989; Lin et al., 2005). The mean values of individual mitochondria from a single cell were used for the mitochondrial potential estimate. Fcyto represents the lowest value of TMRE fluorescence observed within the boundaries of the same cell. […] FIG. 5E depicts a histogram plot showing average mitochondrial membrane potentials before and after treatment. The mean resting ΔΨs for untreated (Buffer), ATP-treated, ATP plus XeC-treated and IP3-BM-treated were 1.84+0.01 (n=78 mitochondria, pooled from 2 experiments), 1.84+0.01 (n=85 mitochondria), 1.85+0.01 (n=80 mitochondria) and 1.86+0.01 (n=48 mitochondria), respectively. Astrocyte cultures were then exposed to their respective treatments and the same fields of mitochondria were imaged 10 minutes later.

[5] = tested on: HEK293 cells that were overexpressing type 1 muscarinic acetylcholine receptors (mAchR1s); assay: Cell death induced by t-BuOOH or ceramide with IP3-gated Ca2+ release stimulation; format: cell-based, human; conditions: ACh 1 μM; t-BuOOH (100 μM, 3 hrs) or ceramide (40 μM, 12 hrs)
From the text: P2 purinoceptors are a class of cell surface receptors, subdivided into either the ligand-gated ionotropic receptors (P2X) or G-protein-coupled metabotropic receptors (P2Y)). We focused our work on the P2Y-Rs due to their strong coupling to Gq/11 signaling pathway in astrocytes. Activation of P2Y-receptors stimulates PLCB isoenzymes, increasing inositol triphosphate (IP3) formation and subsequent Ca^2+ mobilization from thapsigargin sensitive stores in the endoplasmic reticulum (ER). Thapsigargin is a specific inhibitor of the sarco-endoplasmic reticulum Ca^2+ ATPases (SERCAs). As mentioned above, IP3-mediated Ca^2+ release is efficiently sequestered by mitochondria, due to its physically close proximity the Ca^2+ channel pore. Increased mitochondrial Ca^2+ uptake via the Ca^2+ uniporter rapidly stimulates Ca^2+ sensitive dehydrogenases and subsequently, increases respiration and ATP production. […] Another important point to make with regard to mitochondrial Ca^2+ signaling is that high matrix Ca^2+ is generally thought to sensitize cells to cell death stimuli. During prolonged periods or with sufficiently high concentrations, matrix Ca^2+ induces opening of the mitochondrial permeability transition pore (MPT). Recent work has identified the mitochondrial targeted cyclophilin D as a key player in Ca^2+ stimulated cell death. […]

## CSc1nc(N)c2ncn([C@H]3[C@H](O)[C@H](O)[C@]4(COP(=O)(O)OP(=O)(O)O)C[C@H]34)c2n1 [MRS2365, N-methanocarba-2MeSADP]
[1]
  size of the lesion (cortex void of GFP expressing astrocytes): greatly reduces the size of the lesion

## C1CCC[C@H]2CCCN3CC[C@@H](CCCCCC[C@@H]4CCCN5CC[C@@H](CC1)O[C@@H]45)O[C@@H]23 [XeC, Xestospongin C]
[2]; old astrocytes
  average time until ΔΨ collapse: 4.02 ± 0.18 h
[2]; old astrocytes, XeC pretreatment + IP3-BM
  time until ΔΨ collapse: 4.48±0.07
[2]; young astrocytes
  average time until ΔΨ collapse: 5.48 ± 0.22 h
[2]; young astrocytes, XeC pretreatment + IP3-BM
  time until ΔΨ collapse: 4.73±0.05
[3]; old astrocytes, XeC 25 μM 30 min pretreatment, then ATP 10 μM
  peak Ca2+ response: 0.28±0.04
[3]; old astrocytes, XeC 25 μM 30 min pretreatment
  Ca2+ response: 0.13±0.01
[3]; young astrocytes, XeC 25 μM 30 min pretreatment
  Ca2+ response: 0.11±0.01
[4]; pretreated with XeC and then exposed to ATP
  ΔΨ (log Fmito/Fcyto) after treatment: 1.87±0.01

## CCCC(=O)OCOP(=O)(OCOC(=O)CCC)O[C@@H]1[C@H](O)[C@H](O)[C@@H](OP(=O)(OCOC(=O)CCC)OCOC(=O)CCC)[C@H](OP(=O)(OCOC(=O)CCC)OCOC(=O)CCC)[C@H]1O [IP3-BM, butyryloxymethyl ester of IP3]
[2]; old astrocytes, IP3-BM 25 μM fifteen minutes
  time until ΔΨ collapse: 6.32±0.35
[2]; young astrocytes, IP3-BM 25 μM fifteen minutes
  time until ΔΨ collapse: 6.82±0.32
[3]; old astrocytes, IP3-BM 25 μM
  peak Ca2+ response: 0.24±0.02
[3]; young astrocytes, IP3-BM 25 μM
  peak Ca2+ response: 0.34±0.02
[4]; treating astrocytes for 10 minutes
  ΔΨ (log Fmito/Fcyto) after treatment: 2.02±0.01

## CC(=O)OCC[N+](C)(C)C [ACh]
[5]
  cell death: significantly higher
